Test results from patent US8669291B2, “Phenyl substituted cycloalkylamines as monoamine reuptake inhibitors” (Sunovion Pharmaceuticals Inc., priority 2007, dated 2014).

How the values were obtained:
rats [1] = assay: Rat Locomotor Activity; type: in vivo; conditions: PO
Experimental: In order to ensure effects of the compounds on immobility time were not related to a general stimulant effect on baseline motor activity, locomotor activity was assessed using photocell monitored cages (Med-Associates Inc.). Each test chamber was equipped with infrared photocell beams to measure movement of the animals. Horizontal and vertical activity were measured.
Rats or mice were pretreated with vehicle or test compounds and placed back in home cage, following which they were individually placed in locomotor cages and activity was monitored in 1-5 minute intervals for intervals up to 60 min.
Data were analyzed by one way analysis of variance (ANOVA) followed by post-hoc comparisons where appropriate. An effect was considered significant if p<0.05. Data are represented as the mean and standard error to the mean (s.e.m).

rats [2] = assay: Rat Forced Swim Test; type: in vivo; conditions: PO
Source text: The method, which detects antidepressant activity, followed that described by Porsolt et al (Eur. J. Pharmacol., 47: 379-391 (1978)) and modified by Lucki et al. (Psychopharm, 121: 66-72 (1995)). Rats forced to swim in a situation from which they cannot escape rapidly become immobile. Antidepressants decrease the duration of immobility. […] Selective NE reuptake inhibitors decrease immobility by increasing climbing behaviors whereas selective 5-HT reuptake inhibitors decrease immobility by increasing swimming behaviors.
Rats were individually placed in a cylinder (Height=40 cm; Diameter=20 cm) containing 22 cm water (25° C.) for 15 minutes on the first day of the experiment (Session 1) and were then put back in the water 24 hours later for a 5 minute test (Session 2). The sessions were videotaped and duration of immobility as well as swimming and climbing behaviors during the 5 minute test were measured. Twelve rats were tested in each group. The test was performed blind. Compounds were typically evaluated at 3 doses (1-30 mg/kg), administered orally 2 times: 24 hours and 30-60 minutes before the test (Session 2), and compared with a vehicle control group. Desipramine (20 mg/kg i.p.), administered under the same experimental conditions, was used as the positive reference substance.
Data were analyzed by one way analysis of variance (ANOVA) followed by post-hoc comparisons where appropriate. An effect will be considered significant if p<0.05. Data are represented as the mean and standard error to the mean (s.e.m.).

5-HT Transporter (SERT) = target: T1, 5-HT Transporter (SERT) (Mus musculus, UniProt Q60857); assay: ex vivo [3H] citalopram binding to SERT sites in mouse brain; conditions: mice, 60 minutes after treatment
T1 construct: Cortical membranes (400 μL; equivalent to 1.25 mg wet weight of tissue/tube); from tissue; host or cells: frontal cortex of C57BL/6 mice
Experimental: Receptor occupancy of central noradrenaline (NA), 5-HT and dopamine (DA) transporter sites following peripheral administration of compounds was determined using [^3H] nisoxetine, [^3H] citalopram and [^3H] WIN 35428 binding, respectively. Liquid scintillation counting was used to quantify the radioactivity.
C57BL/6 mice (25-30 g) were dosed orally with either vehicle or compound at 4 dose levels. Mice were sacrificed 60 minutes after treatment. Whole brains were removed and cortex and striata dissected out before being frozen on dry ice. The brain tissue was stored at −20° C. until the day of the assay. The cortex from each hemisphere was frozen separately. One was used to determine occupancy of NA transporter sites and the other occupancy of 5-HT transporter sites. Striatum was used to determine occupancy of DA transporter sites.
Frontal cortex from each hemisphere or striata was homogenized individually in ice-cold assay buffer using a tight fitting glass/Teflon homogenizer and used immediately in the binding assay.
Cortical membranes (400 μL; equivalent to 1.25 mg wet weight of tissue/tube) were incubated with 50 μl of [^3H] citalopram at a single concentration of 1.3 nM and either 50 μl of buffer (total binding) or 50 μl of paroxetine (0.5 μM; non-specific binding) for 1 h at 27° C. For each animal, three tubes were used for the determination of total binding and three tubes were used for the determination of non-specific binding.
Membrane bound radioactivity was recovered by filtration under vacuum through Skatron 11731 filters, presoaked in 0.5% PEI, using a Skatron cell harvester. Filters were rapidly washed with ice-cold phosphate buffer and radioactivity (dpm) was determined by liquid scintillation counting (1 mL Packard MV Gold scintillator).
A value for specific binding (dpm) was generated by the subtraction of mean non-specific binding (dpm) from mean total binding (dpm) for each animal. Data are presented as mean specific binding (dpm) and as a percentage of the vehicle-treated control taken as 100%.

T1 sequence (Q60857 whole entry): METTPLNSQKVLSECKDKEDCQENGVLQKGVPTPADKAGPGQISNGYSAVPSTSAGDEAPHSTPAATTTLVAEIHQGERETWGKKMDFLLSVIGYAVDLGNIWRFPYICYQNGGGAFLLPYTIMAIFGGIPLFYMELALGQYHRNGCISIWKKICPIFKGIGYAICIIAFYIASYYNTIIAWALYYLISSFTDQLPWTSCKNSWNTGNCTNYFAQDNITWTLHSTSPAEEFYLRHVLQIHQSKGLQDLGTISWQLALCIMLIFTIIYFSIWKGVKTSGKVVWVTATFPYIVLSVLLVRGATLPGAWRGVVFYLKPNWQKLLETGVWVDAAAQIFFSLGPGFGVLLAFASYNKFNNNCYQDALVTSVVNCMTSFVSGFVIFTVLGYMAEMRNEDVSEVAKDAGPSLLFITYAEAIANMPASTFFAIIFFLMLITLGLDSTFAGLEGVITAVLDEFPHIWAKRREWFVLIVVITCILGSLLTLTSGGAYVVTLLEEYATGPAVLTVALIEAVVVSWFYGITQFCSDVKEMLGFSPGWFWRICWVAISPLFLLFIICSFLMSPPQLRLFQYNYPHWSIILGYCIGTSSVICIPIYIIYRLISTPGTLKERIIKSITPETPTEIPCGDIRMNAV

## CN(C)C[C@@H]1CCCC[C@@]1(O)c1ccc(Cl)c(Cl)c1 (single isomer, unassigned) [Compound 2, cis-1-(3,4-dichlorophenyl)-2-((dimethylamino)methyl)cyclohexanol]
Rats [1]; 1 mg/kg
  Rat Locomotor Activity Total Distance Traveled ± S.E.M.: ° (100-2500 (°))
Rats [1]; 3 mg/kg
  Rat Locomotor Activity Total Distance Traveled ± S.E.M.: ° (100-2500 (°))
Rats [1]; 10 mg/kg
  Rat Locomotor Activity Total Distance Traveled ± S.E.M.: °°° (>5001 (°°°))
Rats [2]; 1 mg/kg
  Rat Forced Swim (Means ± S.E.M.) Climbing: ## (11-20 (##))
  Rat Forced Swim (Means ± S.E.M.) Immobility: +++ (>41 (+++))
  Rat Forced Swim (Means ± S.E.M.) Swimming: * (1-5 (*))
Rats [2]; 3 mg/kg
  Rat Forced Swim (Means ± S.E.M.) Climbing: # (1-10 (#))
  Rat Forced Swim (Means ± S.E.M.) Immobility: +++ (>41 (+++))
  Rat Forced Swim (Means ± S.E.M.) Swimming: * (1-5 (*))
Rats [2]; 10 mg/kg
  Rat Forced Swim (Means ± S.E.M.) Climbing: ### (>21 (###))
  Rat Forced Swim (Means ± S.E.M.) Immobility: + (1-20 (+))
  Rat Forced Swim (Means ± S.E.M.) Swimming: ** (6-9 (**))
5-HT Transporter (SERT); 1 mg/kg PO
  % Transporter Occupancy, SERT: 11%
5-HT Transporter (SERT); 3 mg/kg PO
  % Transporter Occupancy, SERT: −1%
5-HT Transporter (SERT); 10 mg/kg PO
  % Transporter Occupancy, SERT: 6%
5-HT Transporter (SERT); 30 mg/kg PO
  % Transporter Occupancy, SERT: 5%
